Assay results published in US11952361B1, “2-(1-(3-(dimethylamino)propyl)-4,5-diphenyl-1H-imidazol-2-yl) pyridin-3-ol as an antitumor and antimicrobial compound” (KING FAISAL UNIVERSITY, priority 2023, dated 2024).

What was measured:
[1] = system: human prostate cancer cells (PC3); assay: Cytotoxicity by SRB assay, PC3 cells; assay type: cell-based; details: 0.01 μM to 100 μM, 72 h
Method: (§1) The human prostate cancer cells (PC3) and human osteosarcoma cells (MG-63) were obtained from Nawah Scientific Inc. (Mokatam, Cairo, Egypt) and cultured in DMEM (Dulbecco's modified eagle's medium), Gibco, USA, supplemented with fetal bovine serum (FBS) at a concentration of 10% and […]. of penicillin and streptomycin (PS). The Cells were incubated at 37° C. in a humidified environment that contained 5% CO2.
(§2) Cells were seeded in 96-well plates as aliquots of 100 μL cell suspension and incubated in a complete media for 24 h. afterward, cells were treated with 2-(1-(3-(Dimethylanino)propyl)-4,5-diphenyl-1H-imidazol-2-yl)pyridin-3-ol at diverse concentrations ranging from 0.01 μM to 100 μM for 72 h. Then, cells were fixed at 4° C. for one hour with 150 μL of 10% trichloroacetic acid (TCA). After washing the cells five times with distilled water, 70 μL of sulforhodamine (SRB) solution (0.4% w/v) was added and incubated for 10 min at room temperature in a dark place. […] Then, 150 μL of Tris pH 10.5 (10 mM) was added, and the absorbance was measured at 540 nm using a BMG LABTECH®-FiLJOstar Omega microplate reader (Ortenberg, Germany). Half maximal inhibitory concentrations (IC50) values were calculated for each experiment using GraphPad Prism 6 software. […]
(§3) The inhibition was calculated using the following equation: Inhibition %=100−Average Viability

[2] = system: human osteosarcoma cells (MG-63); assay: Cytotoxicity by SRB assay, MG-63 cells; assay type: cell-based; details: 0.01 μM to 100 μM, 72 h
Method: as §1, §2, §3

melting point: 133 to 135 °C
Compound: CN(C)CCCn1c(-c2ncccc2O)nc(-c2ccccc2)c1-c1ccccc1 [2-(1-(3-(Dimethylamino)propyl)-4,5-diphenyl-1H-imidazol-2-yl)pyridin-3-ol]
antiproliferative activity [1]: excellent antiproliferative activities
antiproliferative activity [2]: excellent antiproliferative activities
